Patent publication US8927717B1, “Thiochromeno[2,3-c]quinolin-12-one derivatives, preparation method and application thereof” (National Defense Medical Center, priority 2014, dated 2015)

Experiments:
Format in all cases: cell-based
NCI/ADR-RES = system: NCI/ADR-RES
NCI-H23 = conditions: Non-small cell lung cancer; 10^−5 molar; 48 hours; SRB
MDA-MB-486 = system: MDA-MB-486
HT29 = system: HT29
60 cancer cell lines = test: NCI 60-cell screen, SRB, whole panel (mean, delta, range)
RPMI-8226 = system: RPMI-8226
MCF7 = system: MCF7
CCRF-CEM = system: CCRF-CEM
KM12 = test: cells
SF-295 = system: SF-295
HL-60(TB) = system: HL-60(TB)
U251 = system: U251
COLO 205 = system: COLO 205
MALME-3M = conditions: Melanoma; 10^−5 molar; 48 hours; SRB
MDA-MB-231/ATCC = system: MDA-MB-231/ATCC
SNB-75 = system: SNB-75
DU-145 = system: DU-145
TK-10 = conditions: Renal cancer; 10^−5 molar; 48 hours; SRB
M14 = system: M14
SK-MEL-28 = system: SK-MEL-28
[1] = Breast cancer, 10^−5 molar, 48 hours, SRB
[2] = Colon cancer, 10^−5 molar, 48 hours, SRB
[3] = Homo sapiens, HT-29, HT29, five dose
[4] = Leukemia, 10^−5 molar, 48 hours, SRB
[5] = CNS cancer, 10^−5 molar, 48 hours, SRB
[6] = Homo sapiens, SF-295, five dose
[7] = Homo sapiens, U-251, U251, five dose
[8] = Homo sapiens, COLO 205, five dose
[9] = Homo sapiens, SNB-75, five dose
[10] = Melanoma, 10^−5 molar, 48 hours, SRB
[11] = Homo sapiens, SK-MEL-28, five dose

CN(C)CCNc1nc2ccccc2c2c(=O)c3cc(Cl)ccc3sc12 [Compound N7, 10-Chloro-6-((2-(dimethylamino)ethyl)amino)-12H-thiochromeno[2,3-c]quinolin-12-one]
GI50 (NCI/ADR-RES; Homo sapiens, NCI/ADR-RES, five dose): 1.67 µM
CC50 (NCI/ADR-RES; Homo sapiens, NCI/ADR-RES, five dose, read-out: LC50 (the source's name)): 6 µM
TGI (NCI/ADR-RES; NCI/ADR-RES, five dose): 3.17 µM
Growth percent NCI/ADR-RES (NCI/ADR-RES; Ovarian cancer, 10^−5 molar, 48 hours, SRB): 23.00%
Growth percent NCI-H23 (NCI-H23): 72.59%
GI50 (MDA-MB-486; 60 cell, MDA-MB-486, five dose): 1.47 µM
CC50 (MDA-MB-486; 60 cell, MDA-MB-486, five dose, read-out: LC50 (the source's name)): 7.34 µM
Growth percent MDA-MB-486 (MDA-MB-486; [1]): 12.81%
TGI (MDA-MB-486; MDA-MB-486, five dose): 3.28 µM
Growth percent HT29 (HT29; [2]): −84.24%
TGI (HT29; HT29, five dose): 3.36 µM
GI50 (HT29; [3]): 1.65 µM
LC50 (concentration killing 50% of cells) (HT29; [3]): 6.88 µM
GI50 (60 cancer cell lines; 60 cell, mean over panel, five dose): 1.66 µM
CC50 (60 cancer cell lines; 60 cell, mean over panel, five dose, read-out: LC50, Mean): 6.92 µM
Growth percent, Delta (60 cancer cell lines; delta over the cell panel, 10^−5 molar, 48 hours, SRB): 85.53%
TGI, Mean (60 cancer cell lines; mean over panel, five dose): 3.39 µM
Growth percent, Mean (60 cancer cell lines; mean over the cell panel, 10^−5 molar, 48 hours, SRB): −11.06%
Growth percent, Range (60 cancer cell lines; range over the cell panel, 10^−5 molar, 48 hours, SRB): 187.88%
GI50 (RPMI-8226; Homo sapiens, RPMI-8226, five dose): 1.76 µM
CC50 (RPMI-8226; Homo sapiens, RPMI-8226, five dose, read-out: LC50 (the source's name)): 7.69 µM
Growth percent RPMI-8226 (RPMI-8226; [4]): −37.68%
TGI (RPMI-8226; RPMI-8226, five dose): 3.68 µM
Growth percent MCF7 (Table 2: MCF) (MCF7; [1]): −85.41%
GI50 (MCF7; Homo sapiens, MCF7, five dose): 1.23 µM
CC50 (MCF7; Homo sapiens, MCF7, five dose, read-out: LC50 (the source's name)): 5.71 µM
TGI (MCF7; MCF7, five dose): 2.66 µM
TGI (CCRF-CEM; CCRF-CEM, five dose): 3.41 µM
GI50 (CCRF-CEM; Homo sapiens, CCRF-CEM, five dose): 1.63 µM
CC50 (CCRF-CEM; Homo sapiens, CCRF-CEM, five dose, read-out: LC50 (the source's name)): 7.15 µM
Growth percent CCRF-CEM (CCRF-CEM; [4]): −53.54%
Growth percent KM12 (KM12; [2]): −77.07%
GI50 (KM12; Homo sapiens, KM12, five dose): 1.78 µM
LC50 (KM12; Homo sapiens, KM12, five dose): 6.03 µM
TGI (KM12; KM12, five dose): 3.28 µM
Growth percent SF-295 (SF-295; [5]): −32.59%
GI50 (SF-295; [6]): 1.73 µM
LC50 (SF-295; [6]): 5.98 µM
TGI (SF-295; SF-295, five dose): 3.21 µM
TGI (HL-60(TB); HL-60(TB), five dose): 3.49 µM
GI50 (HL-60(TB); Homo sapiens, HL-60(TB), five dose): 1.76 µM
CC50 (HL-60(TB); Homo sapiens, HL-60(TB), five dose, read-out: LC50 (the source's name)): 6.95 µM
Growth percent HL-60(TB) (HL-60(TB); [4]): −47.40%
Growth percent U251 (U251; [5]): −39.75%
GI50 (U251; [7]): 1.48 µM
LC50 (U251; [7]): 5.44 µM
TGI (U251; U251, five dose): 2.84 µM
TGI (COLO 205; COLO 205, five dose): 3.17 µM
Growth percent COLO 205 (COLO 205; [2]): −82.85%
GI50 (COLO 205; [8]): 1.66 µM
LC50 (COLO 205; [8]): 6.05 µM
Growth percent MALME-3M (MALME-3M): −4.32%
Growth percent MDA-MB-231/ATCC (MDA-MB-231/ATCC; [1]): −37.28%
GI50 (MDA-MB-231/ATCC; Homo sapiens, MDA-MB-231/ATCC, five dose): 1.2 µM
CC50 (MDA-MB-231/ATCC; Homo sapiens, MDA-MB-231/ATCC, five dose, read-out: LC50 (the source's name)): 5.28 µM
TGI (MDA-MB-231/ATCC; MDA-MB-231/ATCC, five dose): 2.51 µM
Growth percent SNB-75 (SNB-75; [5]): 33.36%
GI50 (SNB-75; [9]): 1.28 µM
LC50 (SNB-75; [9]): 12.1 µM
TGI (SNB-75; SNB-75, five dose): 3.69 µM
TGI (DU-145; DU-145, five dose): 3.34 µM
GI50 (DU-145; Homo sapiens, DU-145, five dose): 1.87 µM
CC50 (DU-145; Homo sapiens, DU-145, five dose, read-out: LC50 (the source's name)): 5.99 µM
Growth percent DU-145 (DU-145; Prostate cancer, 10^−5 molar, 48 hours, SRB): −80.85%
Growth percent TK-10 (TK-10): −89.05%
GI50 (M14; Homo sapiens, M14, five dose): 1.85 µM
LC50 (M14; Homo sapiens, M14, five dose): 6.4 µM
TGI (M14; M14, five dose): 3.44 µM
Growth percent M14 (M14; [10]): −92.77%
GI50 (SK-MEL-28; [11]): 1.81 µM
LC50 (SK-MEL-28; [11]): 5.89 µM
Growth percent SK-MEL-28 (SK-MEL-28; [10]): −76.79%
TGI (SK-MEL-28; SK-MEL-28, five dose): 3.27 µM
